Experimental data: patent US5968910A, “Compositions containing two or three inhibitors of different HIV reverse transcriptases” (priority 1994, dated 1999)
Converted amounts (≈) assume the structure as drawn. Where two headings read alike, the source gives them in different places.

Tests used:
Assay type in all cases: cell-based
HIV-1(IIIB) (WT) = experiment: microbe, parasite or virus in culture; details: HIV-1 (III8), Table 5
Experimental: (§1) CEM cells were suspended at 250,000 cells per ml of culture medium and infected with wild-type HIV-I(IIIB) or mutant HIV-1 strains at 100 50% cell culture infective doses per ml. Then 100 μl of the infected cell suspensions was added to 200-μl microtiter plate wells containing 100 μl of an appropriate dilution of the test compounds. After 4 days incubation at 37° C., the cell cultures were examined for syncytium formation.

[1] = test system: HIV-1/V(0.1) 101-Ile + 141-Glu; experiment: Sensitivity of mutant HIV-1 strain in CEM cell cultures; details: Table 5
Experimental: as §1

HIV-1/IV(0.1) 103-Thr = experiment: as above; details: Table 5
Experimental: as §1

HIV-1/II(0.1) 100-Ile = experiment: as above; details: Table 5
Experimental: as §1

HIV-1/III(0.1) 103-Asn = experiment: as above; details: Table 5
Experimental: as §1

HIV-1/V(0.5) 103-Asn = experiment: as above; details: Table 5
Experimental: as §1

HIV-1/I(0.1) 103-Asn = experiment: as above; details: Table 5
Experimental: as §1

[2] = Human immunodeficiency virus 1, CCRF-CEM, read-out: EC50

CCOCn1c(Cc2ccccc2)c(C(C)C)c(=O)[nH]c1=O [MKC-442]
EC50 (HIV-1(IIIB) (WT)): 0.0006 µg/mL (≈ 0.00198 µM) | EC50 [1]: 0.008 µg/mL (≈ 0.0265 µM) | EC50 (HIV-1/IV(0.1) 103-Thr): 0.32 µg/mL (≈ 1.06 µM) | EC50 (HIV-1/II(0.1) 100-Ile): 0.40 µg/mL (≈ 1.32 µM) | EC50 (HIV-1/III(0.1) 103-Asn): 0.01 µg/mL (≈ 0.0331 µM) | EC50 (HIV-1/V(0.5) 103-Asn): 0.35 µg/mL (≈ 1.16 µM) | EC50 (HIV-1/I(0.1) 103-Asn): 0.08 µg/mL (≈ 0.265 µM)

Nc1ccn([C@@H]2CS[C@H](CO)O2)c(=O)n1 [Compound 3TC, (-)-2'-deoxy-3'-thiacytidine]
EC50 (HIV-1(IIIB) (WT); Human immunodeficiency virus 1, IIIB, CCRF-CEM, read-out: EC50): 0.008 µg/mL (≈ 0.0349 µM) | EC50 [1, 2]: 0.04 µg/mL (≈ 0.174 µM) | EC50 (HIV-1/IV(0.1) 103-Thr; [2]): 0.03 µg/mL (≈ 0.131 µM) | EC50 (HIV-1/II(0.1) 100-Ile; [2]): 0.05 µg/mL (≈ 0.218 µM) | EC50 (HIV-1/III(0.1) 103-Asn; [2]): 0.03 µg/mL (≈ 0.131 µM) | EC50 (HIV-1/V(0.5) 103-Asn; [2]): 0.04 µg/mL (≈ 0.174 µM) | EC50 (HIV-1/I(0.1) 103-Asn; [2]): 0.03 µg/mL (≈ 0.131 µM)
